Experimental data published in ChEMBL document CHEMBL1123242, “Derivatives of 1-(1,3-benzodioxol-5-yl)-2-butanamine: representatives of a novel therapeutic class” (1986).

How the values were obtained:
Type in all cases: functional
Rattus norvegicus [1] = test: Compound was tested for hallucinogenic activity in rats at the dose 0.34 (mg/kg); Number of rats selecting the LSD lever/ number of rats responding (0/8)
Rattus norvegicus [2] = test: Compound was tested for hallucinogenic activity in rats at 1.84 dose(mg/kg); 2/4, highest dose tested
Rattus norvegicus [3] = test: Compound was tested for hallucinogenic activity in rats at the dose 0.69(mg/kg); Number of rats selecting the LSD lever/ number of rats responding (0/8)
Rattus norvegicus [4] = test: Compound was tested for hallucinogenic activity in rats at 1.38 dose(mg/kg); Number of rats selecting the LSD lever/ number of rats responding (3/8)
Rattus norvegicus [5] = test: Compound was tested for hallucinogenic activity in rats at the dose of 0.0025 (mg/kg); Number of rats selecting the LSDlever/ number of rats responding (0/8)
Rattus norvegicus [6] = test: Compound was tested for hallucinogenic activity in rats at the dose of 0.04(mg/kg); Number of rats selecting the LSDlever/ number of rats responding (6/8)
Rattus norvegicus [7] = test: Compound was tested for hallucinogenic activity in rats at the dose of 0.01(mg/kg); Number of rats selecting the LSDlever/ number of rats responding (4/8)
Rattus norvegicus [8] = test: Compound was tested for hallucinogenic activity in rats at the dose 0.0025 (mg/kg)
Rattus norvegicus [9] = test: Compound was tested for hallucinogenic activity in rats at the dose of 0.02(mg/kg); Number of rats selecting the LSDlever/ number of rats responding (5/8)
Rattus norvegicus [10] = test: Compound was tested for hallucinogenic activity in rats at the dose of 0.08(mg/kg); Number of rats selecting the LSDlever/ number of rats responding (8/8)
Rattus norvegicus [11] = test: Compound was tested for hallucinogenic activity in rats at the dose of 0.005(mg/kg); Number of rats selecting the LSDlever/ number of rats responding (4/8)
Rattus norvegicus [12] = test: Compound was tested for hallucinogenic activity in rats at 0.32(mg/kg)
Rattus norvegicus [13] = test: Compound was tested for hallucinogenic activity in rats at 1.72 dose(mg/kg); Number of rats selecting the LSD lever/ number of rats responding (7/8)
Rattus norvegicus [14] = test: Compound was tested for hallucinogenic activity in rats at 0.63 dose(mg/kg); Number of rats selecting the LSD lever/ number of rats responding (2/8)
Rattus norvegicus [15] = test: Compound was tested for hallucinogenic activity in rats at 0.32dose (mg/kg); Number of rats selecting the LSD lever/ number of rats responding (0/8)
Rattus norvegicus [16] = test: Compound was tested for hallucinogenic activity in rats at 1.29 dose(mg/kg); Number of rats selecting the LSD lever/ number of rats responding (5/8)
Rattus norvegicus [17] = test: Compound was tested for hallucinogenic activity in rats at the dose 0 (mg/kg)
Rattus norvegicus [18] = test: Compound was tested for hallucinogenic activity in rats at the dose 0.16 (mg/kg)
Rattus norvegicus [19] = test: Compound was tested for hallucinogenic activity in rats at 0.16 dose(mg/kg); Number of rats selecting the LSDlever/ number of rats responding (1/8)
Rattus norvegicus [20] = test: Compound was tested for hallucinogenic activity in rats at the 1.29 dose(mg/kg); Number of rats selecting the LSDlever/ number of rats responding (7/8)
Rattus norvegicus [21] = test: Compound was tested for hallucinogenic activity in rats at 0.32 dose(mg/kg); Number of rats selecting the LSDlever/ number of rats responding (2/8)
Rattus norvegicus [22] = test: Compound was tested for hallucinogenic activity in rats at the 0.63 dose(mg/kg); Number of rats selecting the LSDlever/ number of rats responding (2/8)
Rattus norvegicus [23] = test: Compound was tested for hallucinogenic activity in rats at 0.69 dose(mg/kg); Number of rats selecting the LSD lever/ number of rats responding (2/9)
Rattus norvegicus [24] = test: Compound was tested for hallucinogenic activity in rats at 2.07dose (mg/kg); Number of rats selecting the LSD lever/ number of rats responding (3/8)
Rattus norvegicus [25] = test: Compound was tested for hallucinogenic activity in rats at 2.41 dose (mg/kg); Number of rats selecting the LSD lever/ number of rats responding (3/8)
Rattus norvegicus [26] = test: Compound was tested for hallucinogenic activity in rats at 3.44 dose (mg/kg); Number of rats selecting the LSD lever/ number of rats responding (4/8)
Rattus norvegicus [27] = test: Compound was tested for hallucinogenic activity in rats at the dose 0.34(mg/kg); Number of rats selecting the LSD lever/ number of rats responding (3/8
Rattus norvegicus [28] = test: Compound was tested for hallucinogenic activity in rats at 4.14 dose (mg/kg); 2/4, highest dose tested
Rattus norvegicus [29] = test: Compound was tested for hallucinogenic activity in rats at dose 1.38(mg/kg); Number of rats selecting the LSD lever/ number of rats responding (2/8)
Rattus norvegicus [30] = test: Compound was tested for hallucinogenic activity in rats at 1.72 dose(mg/kg); Number of rats selecting the LSD lever/ number of rats responding (4/8)
Rattus norvegicus [31] = test: Compound was tested for hallucinogenic activity in rats at the dose 0.17(mg/kg); Number of rats selecting the LSD lever/ number of rats responding (1/8)
Rattus norvegicus [32] = test: Compound was tested for hallucinogenic activity in rats at 2.76 dose (mg/kg); Number of rats selecting the LSD lever/ number of rats responding (3/9)
Rattus norvegicus [33] = test: Compound was tested for hallucinogenic activity in rats at 15 dose(mg/kg); 0/0, highest dose tested

## CCC(N)Cc1ccc2c(c1)OCO2 (racemic)
Rattus norvegicus [1]
  Result: 0
Rattus norvegicus [2]
  Result: 2
Rattus norvegicus [3]
  Result: 0
Rattus norvegicus [4]
  Result: 3

## CCN(CC)C(=O)[C@@H]1C=C2c3cccc4[nH]cc(c34)C[C@H]2N(C)C1 [LYSERGIDE]
Rattus norvegicus [5]
  Result: 0
Rattus norvegicus [6]
  Result: 6
Rattus norvegicus [7]
  Result: 4
Rattus norvegicus [8]
  ED50: 0.025 µmol/kg
Rattus norvegicus [9]
  Result: 5
Rattus norvegicus [10]
  Result: 8
Rattus norvegicus [11]
  Result: 4

## CC(N)Cc1ccc2c(c1)OCO2 (racemic) [TENAMFETAMINE]
Rattus norvegicus [12]
  ED50: 0.97 mg/kg
Rattus norvegicus [13]
  Result: 7
Rattus norvegicus [14]
  Result: 2
Rattus norvegicus [15]
  Result: 0
Rattus norvegicus [16]
  Result: 5
Rattus norvegicus [17]
  ED50: 4.52 µmol/kg

## C[C@@H](N)Cc1ccc2c(c1)OCO2
Rattus norvegicus [18]
  ED50: 2.94 µmol/kg
Rattus norvegicus [19]
  Result: 1
Rattus norvegicus [20]
  Result: 7
Rattus norvegicus [21]
  Result: 2
Rattus norvegicus [22]
  Result: 2

## CN[C@H](C)Cc1ccc2c(c1)OCO2
Rattus norvegicus [23]
  Result: 2
Rattus norvegicus [24]
  Result: 3
Rattus norvegicus [25]
  Result: 3
Rattus norvegicus [26]
  Result: 4
Rattus norvegicus [27]
  Result: 3
Rattus norvegicus [28]
  Result: 2
Rattus norvegicus [29]
  Result: 2
Rattus norvegicus [30]
  Result: 4
Rattus norvegicus [31]
  Result: 1
Rattus norvegicus [32]
  Result: 3

## CC[C@@H](Cc1ccc2c(c1)OCO2)NC
Rattus norvegicus [33]
  Result: 0
